# Reference: patent US20240279230A1, “CRYSTALLINE FORMS OF A HER2 INHIBITOR” (Boehringer Ingelheim International GmbH, priority 2022, published 2024)
# “Also recorded” adds a separate entry of the source.
# What was measured:
# Type in all cases: physicochemical
# [1] = Dynamic Vapor Sorption (DVS) sorption isotherms, hygroscopic behaviour; conditions: for Hygroscopicity: DVS classification; for Δm (0-80%), moisture absorbed at 80% RH / Δm (0-90%), maximum water uptake: DVS, 25.0 ±1.0° C.; for Δm (0-90%), maximum water uptake: up to 90% RH; for Phase change during DVS experiment: RH cycled twice 0% to 90% to 0%; for Hysteresis: between sorption and desorption curves
# Description: The methodology for this can be as follows. The mass of the solids is monitored as the relative humidity (RH) was deliberately changed. The RH is cycled twice from 0% to 90% to 0% in 10% steps. The temperature during measurement is kept constantly at (25.0 ±1.0° C.) Each step is held until mass stability was achieved. A camera inside the instrument captured an image at the conclusion of each stage, allowing for the observation of any visual changes in the solid form during the analysis.
# [2] = Thermogravimetric Analysis (TGA); conditions: 20° C./min
# Description: The methodology for this can be as follows. Solid compounds (˜5 mg) are placed in an aluminium pan and sealed. The instrument used for the analysis is a TA Instruments TGA 550. The same sample lots from DSC testing are used for TGA testing. Processing is completed using TRIOS software.
# [3] = Polymorphic stability of form III and form IV under stress storage, PXRD; conditions: 21 days
# Description: A Bruker D2 Phaser X-Ray Diffractometer (XRD, EQ-SSRD-XRD-01) can be used for characterizing the samples. Raw results are evaluated using DIFFRAC.EVA (Bruker, V5.0) software. The Kα2 contribution was stripped, and a peak search was performed using peak search parameters (width 0.302 and threshold 1.0).
# A test sample (approximately 0.3 g) is representatively subsampled into an agate-type mortar and pestle. Sample is ground for approximately one minute to achieve a fine homogenous powder. Sample is then transferred into a stainless-steel sample holder fitted with a zero-diffraction plate (ZDP). The sample holder is then levelled off with a glass slide to create a flat sample surface level with the sample holder.
# [4] = Chemical stability of solid state forms under temperature/humidity stress, related substances by HPLC at 252 nm; set-up: Impurity I / Impurity A / Impurity B / Impurity C / Impurity D / Impurity E / Impurity F / Impurity G / Impurity H: unit not given here
# Excerpt: To do so, control samples are stored refrigerated in the presence of desiccant for the duration of the study and measured simultaneously with stressed samples by HPLC at a wavelength of 252 nm.
# [5] = Temperature stress tests with form I, form II and form VI, PXRD; conditions: 6 h at 150° C. (closed vial)
# [6] = Control 1, stored refrigerated with desiccant
# [7] = Control 2, stored refrigerated with desiccant
# [8] = Control 3, stored refrigerated with desiccant
structure (smiles),measurement,setting,value
"C=CC(=O)NC1CCN(c2ncc3ncnc(Nc4ccc(Oc5ccc6c(c5)ncn6C)c(C)c4)c3n2)CC1 [Form III, N-{1-[8-({3-methyl-4-[(1-methyl-1H-1,3-benzodiazol-5-yl)oxy]phenyl}amino)-[1,3]diazino[5,4-d]pyrimidin-2-yl]piperidin-4-yl}prop-2-enamide]",Change in visual appearance during the humidity cycles,[1]; DVS camera images,No change in the visual appearance
same,Hygroscopicity,[1],slightly hygroscopic
same,Hygroscopicity,[1]; listed as form III,slightly hygroscopic
same,"Δm (0-80%), moisture absorbed at 80% RH",[1],1.2 wt %
same,"Δm (0-80%), moisture absorbed at 80% RH",[1]; listed as form III,1.2 wt %
same,"Δm (0-90%), maximum water uptake",[1],1.7 wt %
same,"Δm (0-90%), maximum water uptake",[1]; listed as form III,1.7 wt %
same,Phase change during DVS experiment,[1],no indication of irreversible phase conversion or hydrate formation; also recorded: no irreversible phase changes
same,Hysteresis,[1],no
same,Hysteresis,[1]; listed as form III,lack of hysteresis
same,TGA change in mass,[2]; Decomposition,60.862%
same,TGA onset,[2]; Decomposition,420.47 °C
same,TGA change in mass,[2]; Small mass loss event,1.129%
same,TGA end,[2]; Small mass loss event,240.02 °C
same,TGA onset,[2]; Small mass loss event,231.13 °C
same,TGA change in mass,"[2]; Small mass loss event, listed as form III",around 1%
same,Polymorphic stability by PXRD,[3]; open storage 90° C./3% RH,stable and conformed to form III reference standard
same,Polymorphic stability by PXRD,"[3]; open storage 90° C./3% RH, listed as form III",neither form underwent phase changes
same,Polymorphic stability by PXRD,[3]; open storage 90° C./78% RH,stable and conformed to form III reference standard
same,Polymorphic stability by PXRD,"[3]; open storage 90° C./78% RH, listed as form III",neither form underwent phase changes
same,Color change after stressing,"[4]; 60-90° C., 3-79% RH, up to 21 days",No color changes
same,Impurity A,"[4]; 60° C./75% RH, 21 days",0.067
same,Impurity B,"[4]; 60° C./75% RH, 21 days",0.012
same,Impurity C,"[4]; 60° C./75% RH, 21 days",0.023
same,Impurity D,"[4]; 60° C./75% RH, 21 days",0.134
same,Impurity E,"[4]; 60° C./75% RH, 21 days",0.057
same,Impurity F,"[4]; 60° C./75% RH, 21 days",0
same,Impurity G,"[4]; 60° C./75% RH, 21 days",0.019
same,Impurity H,"[4]; 60° C./75% RH, 21 days",0.140
same,Impurity I,"[4]; 60° C./75% RH, 21 days",0.014
same,Impurity A,"[4]; 70° C./62% RH, 21 days",0.064
same,Impurity B,"[4]; 70° C./62% RH, 21 days",0.012
same,Impurity C,"[4]; 70° C./62% RH, 21 days",0.024
same,Impurity D,"[4]; 70° C./62% RH, 21 days",0.119
same,Impurity E,"[4]; 70° C./62% RH, 21 days",0.059
same,Impurity F,"[4]; 70° C./62% RH, 21 days",0.006
same,Impurity G,"[4]; 70° C./62% RH, 21 days",0.019
same,Impurity H,"[4]; 70° C./62% RH, 21 days",0.139
same,Impurity I,"[4]; 70° C./62% RH, 21 days",0.015
same,Impurity A,"[4]; 75° C./41% RH, 21 days",0.066
same,Impurity B,"[4]; 75° C./41% RH, 21 days",0.011
same,Impurity C,"[4]; 75° C./41% RH, 21 days",0.025
same,Impurity D,"[4]; 75° C./41% RH, 21 days",0.118
same,Impurity E,"[4]; 75° C./41% RH, 21 days",0.062
same,Impurity F,"[4]; 75° C./41% RH, 21 days",0.009
same,Impurity G,"[4]; 75° C./41% RH, 21 days",0.019
same,Impurity H,"[4]; 75° C./41% RH, 21 days",0.136
same,Impurity I,"[4]; 75° C./41% RH, 21 days",0.010
same,Impurity A,"[4]; 75° C./79% RH, 17 days",0.066
same,Impurity B,"[4]; 75° C./79% RH, 17 days",0.012
same,Impurity C,"[4]; 75° C./79% RH, 17 days",0.031
same,Impurity D,"[4]; 75° C./79% RH, 17 days",0.106
same,Impurity E,"[4]; 75° C./79% RH, 17 days",0.074
same,Impurity F,"[4]; 75° C./79% RH, 17 days",0
same,Impurity G,"[4]; 75° C./79% RH, 17 days",0.005
same,Impurity H,"[4]; 75° C./79% RH, 17 days",0.135
same,Impurity I,"[4]; 75° C./79% RH, 17 days",0.015
same,Impurity A,"[4]; 80° C./11% RH, 21 days",0.066
same,Impurity B,"[4]; 80° C./11% RH, 21 days",0.011
same,Impurity C,"[4]; 80° C./11% RH, 21 days",0.025
same,Impurity D,"[4]; 80° C./11% RH, 21 days",0.123
same,Impurity E,"[4]; 80° C./11% RH, 21 days",0.054
same,Impurity F,"[4]; 80° C./11% RH, 21 days",0.007
same,Impurity G,"[4]; 80° C./11% RH, 21 days",0.024
same,Impurity H,"[4]; 80° C./11% RH, 21 days",0.141
same,Impurity I,"[4]; 80° C./11% RH, 21 days",0.015
same,Impurity A,"[4]; 80° C./61% RH, 17 days",0.052
same,Impurity B,"[4]; 80° C./61% RH, 17 days",0.013
same,Impurity C,"[4]; 80° C./61% RH, 17 days",0.024
same,Impurity D,"[4]; 80° C./61% RH, 17 days",0.096
same,Impurity E,"[4]; 80° C./61% RH, 17 days",0.060
same,Impurity F,"[4]; 80° C./61% RH, 17 days",0.009
same,Impurity G,"[4]; 80° C./61% RH, 17 days",0.020
same,Impurity H,"[4]; 80° C./61% RH, 17 days",0.137
same,Impurity I,"[4]; 80° C./61% RH, 17 days",0.015
same,Impurity A,"[4]; 90° C./3% RH, 21 days",0.064
same,Impurity B,"[4]; 90° C./3% RH, 21 days",0.012
same,Impurity C,"[4]; 90° C./3% RH, 21 days",0.033
same,Impurity D,"[4]; 90° C./3% RH, 21 days",0.087
same,Impurity E,"[4]; 90° C./3% RH, 21 days",0.073
same,Impurity F,"[4]; 90° C./3% RH, 21 days",0
same,Impurity G,"[4]; 90° C./3% RH, 21 days",0.007
same,Impurity H,"[4]; 90° C./3% RH, 21 days",0.140
same,Impurity I,"[4]; 90° C./3% RH, 21 days",0.016
same,Impurity A,"[4]; 90° C./41% RH, 10 days",0.066
same,Impurity B,"[4]; 90° C./41% RH, 10 days",0.013
same,Impurity C,"[4]; 90° C./41% RH, 10 days",0.025
same,Impurity D,"[4]; 90° C./41% RH, 10 days",0.109
same,Impurity E,"[4]; 90° C./41% RH, 10 days",0.060
same,Impurity F,"[4]; 90° C./41% RH, 10 days",0
same,Impurity G,"[4]; 90° C./41% RH, 10 days",0.022
same,Impurity H,"[4]; 90° C./41% RH, 10 days",0.138
same,Impurity I,"[4]; 90° C./41% RH, 10 days",0.013
same,Impurity A,"[4]; 90° C./78% RH, 21 days",0.065
same,Impurity B,"[4]; 90° C./78% RH, 21 days",0.011
same,Impurity C,"[4]; 90° C./78% RH, 21 days",0.023
same,Impurity D,"[4]; 90° C./78% RH, 21 days",0.112
same,Impurity E,"[4]; 90° C./78% RH, 21 days",0.057
same,Impurity F,"[4]; 90° C./78% RH, 21 days",0.006
same,Impurity G,"[4]; 90° C./78% RH, 21 days",0.021
same,Impurity H,"[4]; 90° C./78% RH, 21 days",0.133
same,Impurity I,"[4]; 90° C./78% RH, 21 days",0.014
same,Impurity A,[4]; [6],0.059
same,Impurity B,[4]; [6],0.012
same,Impurity C,[4]; [6],0.026
same,Impurity D,[4]; [6],0.127
same,Impurity E,[4]; [6],0.049
same,Impurity F,[4]; [6],0.008
same,Impurity G,[4]; [6],0.016
same,Impurity H,[4]; [6],0.139
same,Impurity I,[4]; [6],0.014
same,Impurity A,[4]; [7],0.051
same,Impurity B,[4]; [7],0.010
same,Impurity C,[4]; [7],0.023
same,Impurity D,[4]; [7],0.097
same,Impurity E,[4]; [7],0.057
same,Impurity F,[4]; [7],0.006
same,Impurity G,[4]; [7],0.019
same,Impurity H,[4]; [7],0.136
same,Impurity I,[4]; [7],0.016
same,Impurity A,[4]; [8],0.069
same,Impurity B,[4]; [8],0.010
same,Impurity C,[4]; [8],0.024
same,Impurity D,[4]; [8],0.143
same,Impurity E,[4]; [8],0.051
same,Impurity F,[4]; [8],0.007
same,Impurity G,[4]; [8],0.019
same,Impurity H,[4]; [8],0.139
same,Impurity I,[4]; [8],0.016
same,Increase in related substances,"[4]; accelerated stress conditions, up to 21 days at 90° C./78% RH",no significant increase in any related substance
same,Chemical stability in the solid state,[4]; up to 21 days at 90° C./78% RH,chemically very stable
"C=CC(=O)NC1CCN(c2ncc3ncnc(Nc4ccc(Oc5ccc6c(c5)ncn6C)c(C)c4)c3n2)CC1 [Form I, N-{1-[8-({3-methyl-4-[(1-methyl-1H-1,3-benzodiazol-5-yl)oxy]phenyl}amino)-[1,3]diazino[5,4-d]pyrimidin-2-yl]piperidin-4-yl}prop-2-enamide]",Hygroscopicity,[1],hygroscopic
same,Hygroscopicity,[1]; listed as form I,hygroscopic
same,"Δm (0-80%), moisture absorbed at 80% RH",[1],5.4 wt %
same,"Δm (0-80%), moisture absorbed at 80% RH",[1]; listed as form I,5.4 wt %
same,"Δm (0-90%), maximum water uptake",[1],7.3 wt %
same,"Δm (0-90%), maximum water uptake",[1]; listed as form I,7.3 wt %
same,Phase change during DVS experiment,[1],no irreversible phase changes
same,Hysteresis,[1],yes
same,Hysteresis,[1]; listed as form I,significant hysteresis
same,TGA change in mass,[2]; Decomposition,47.883%
same,TGA end,[2]; Decomposition,463.12 °C
same,TGA onset,[2]; Decomposition,419.14 °C
same,PXRD of stressed sample,[5],Form I
same,PXRD of stressed sample,[5]; listed as form I,remained unchanged; also recorded: polymorphically stable
